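Dose response: 5 concentrations. Exposure: 48 h. Format: 96-well plates. Endpoint: linear interpolation; highest concentration if not reached. GI50: concentration for 50% inhibition of growth. The concentration for full growth arrest is given as TGI.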

Some test systems named below: 786-0 renal; NCI-H522 lung; KM12 colon; RXF 393 renal; SNB-75 CNS; COLO 205 colon; DU-145 prostate; SF-539 CNS; ACHN renal; OVCAR-5 ovarian.
What all share (assay): DTP human tumour cell line panel, 48 h

In the case of `O=c1[nH]ccc2nc(N3CCC(O)CC3)nc(Nc3cccc(C(F)(F)F)c3)c12`, the GI50 with 786-0 renal was 2.06 µM; with NCI-H522 lung, 2.36 µM; in the test on KM12 colon, 1.44 µM; with RXF 393 renal, 1.45 µM; with SNB-75 CNS, 5.76 µM; in the test on COLO 205 colon, 3.08 µM. Besides, the GI50 was 1.56 µM in the test with DU-145 prostate, 5.19 µM with SF-539 CNS, 0.702 µM in the test with ACHN renal and 28.3 µM in the test with OVCAR-5 ovarian. The TGI with 786-0 renal is > 100 µM; in the test on NCI-H522 lung, 10.1 µM; with KM12 colon it was 5.42 µM; in the test with RXF 393 renal, 23.2 µM; in the test on SNB-75 CNS it was 82.1 µM; with COLO 205 colon it was 14.5 µM. For the same compound, the TGI in the test on DU-145 prostate came out at 19.3 µM; with SF-539 CNS it was 38.6 µM; in the test with ACHN renal, 84.7 µM; in the test with OVCAR-5 ovarian, 94.3 µM.
With `C[C@@H]1N=C(c2ccc(Br)cc2)Nc2nc3ccccn3c2C1=O`, the GI50 in the test on 786-0 renal is 23.8 µM; in the test on NCI-H522 lung it was 3.24 µM; with KM12 colon it was 3.39 µM; in the test with RXF 393 renal, 10.2 µM; in the test on SNB-75 CNS it was 0.703 µM; in the test on COLO 205 colon, 1.87 µM. In addition, the GI50 is 23.2 µM in the test with DU-145 prostate, 7.98 µM with SF-539 CNS, 6.75 µM with ACHN renal and 23.5 µM with OVCAR-5 ovarian. The TGI in the test on 786-0 renal was > 100 µM; in the test with NCI-H522 lung, 18.4 µM; in the test on KM12 colon it was > 100 µM; in the test on RXF 393 renal, 51.7 µM; with SNB-75 CNS, 7.06 µM; in the test with COLO 205 colon, 4.75 µM. Besides, the TGI with DU-145 prostate was > 100 µM; in the test with SF-539 CNS, 85.3 µM; in the test on ACHN renal, > 100 µM; in the test with OVCAR-5 ovarian, > 100 µM.
As to `c1cc(OCCN2CCCCC2)ccc1CNc1ccc2nc(CCC3CCCCC3)[nH]c2c1`, the GI50 with 786-0 renal was 1.65 µM; with NCI-H522 lung it was 1.98 µM; in the test with KM12 colon, 2.42 µM; with RXF 393 renal it was 1.5 µM; in the test on SNB-75 CNS, 1.62 µM; in the test with COLO 205 colon, 1.76 µM. Further, the GI50 in the test on DU-145 prostate is 3.33 µM; in the test on SF-539 CNS, 1.57 µM; in the test on ACHN renal, 2.2 µM; with OVCAR-5 ovarian, 2.04 µM. Further, the TGI in the test with 786-0 renal came out at 3.55 µM; in the test with NCI-H522 lung, 3.94 µM; with KM12 colon, 6.17 µM; in the test with RXF 393 renal, 3.49 µM; with SNB-75 CNS it was 4.08 µM; with COLO 205 colon, 3.31 µM. Moreover, the concentration for total growth inhibition (TGI) with DU-145 prostate worked out at 11.5 µM; with SF-539 CNS, 3.06 µM; in the test with ACHN renal, 5.4 µM; in the test on OVCAR-5 ovarian, 5.64 µM.
As to `COc1ccc(C2=C(c3ccc(OC)c(OC)c3)C(=O)OC2)cc1`, the GI50 with 786-0 renal is < 0.01 µM; in the test with NCI-H522 lung it was < 0.0406 µM; in the test on RXF 393 renal, 0.0792 µM; in the test on COLO 205 colon it was < 0.0238 µM; in the test with DU-145 prostate, 0.185 µM; in the test on ACHN renal it was < 0.0135 µM. For the same compound, the GI50 in the test on OVCAR-5 ovarian is 0.545 µM. Besides, the TGI with KM12 colon was 3.34 µM; in the test with RXF 393 renal, > 100 µM; in the test with COLO 205 colon it was > 68.1 µM; in the test with DU-145 prostate, > 100 µM; in the test on SF-539 CNS, > 24.2 µM; with ACHN renal it was > 100 µM. Further, the TGI in the test with OVCAR-5 ovarian was > 100 µM.
Take `O=C(Nc1cc[c]([Sb](=[O])([OH])[OH])cc1)c1ccccc1`: the GI50 in the test with 786-0 renal, in the test on NCI-H522 lung, in the test on KM12 colon, with RXF 393 renal, with SNB-75 CNS and with DU-145 prostate was > 100 µM in each case. In addition, the GI50 in the test with ACHN renal and in the test with OVCAR-5 ovarian was > 100 µM throughout. Besides, the TGI in the test on 786-0 renal, with NCI-H522 lung, in the test with KM12 colon, in the test on RXF 393 renal, with SNB-75 CNS and in the test with DU-145 prostate was > 100 µM in each case. The TGI with ACHN renal and in the test with OVCAR-5 ovarian was > 100 µM each time.
`COc1cccc(-c2nc3sccn3c2-c2ccnc(NCCNS(=O)(=O)c3ccccc3)c2)c1`: the GI50 with 786-0 renal is 4 µM; in the test on NCI-H522 lung it was 2.26 µM; in the test on KM12 colon, 3.13 µM; in the test with RXF 393 renal, 2.11 µM; in the test on COLO 205 colon it was 1.87 µM; with DU-145 prostate, 2.98 µM. Besides, the GI50 in the test on SF-539 CNS was 4.98 µM; in the test on ACHN renal it was 2.22 µM; in the test with OVCAR-5 ovarian, 5.65 µM. Besides, the TGI was > 100 µM in the test with 786-0 renal; 27.6 µM in the test with NCI-H522 lung; 25 µM in the test with KM12 colon; > 100 µM in the test with RXF 393 renal; 18.2 µM in the test on COLO 205 colon; > 100 µM in the test on DU-145 prostate. Also, the TGI with SF-539 CNS, with ACHN renal and in the test with OVCAR-5 ovarian was > 100 µM throughout.
Regarding `COc1c(Cl)c2c(c(OC)c1OC)-c1ccc(SC)c(=O)cc1[C@@H](NC(=O)OCC(F)(F)F)CC2`, the GI50 in the test with 786-0 renal, with NCI-H522 lung, in the test on KM12 colon, with SNB-75 CNS, in the test on COLO 205 colon and in the test on DU-145 prostate was < 0.01 µM in each case. For the same compound, the GI50 with SF-539 CNS, in the test on ACHN renal and in the test on OVCAR-5 ovarian was < 0.01 µM in each case. Moreover, the TGI in the test on 786-0 renal is > 30.4 µM; in the test with NCI-H522 lung, 3.46 µM; in the test with KM12 colon, 4.26 µM; with SNB-75 CNS it was > 100 µM; with COLO 205 colon, 0.0314 µM; in the test with DU-145 prostate it was 0.871 µM. Further, the TGI in the test on SF-539 CNS is < 0.01 µM; with ACHN renal it was > 100 µM; in the test on OVCAR-5 ovarian it was > 100 µM.
Consider `CC(C)CNc1nc(-c2ccccc2)nc2ccccc12`, for which the GI50 with 786-0 renal was 14.4 µM; in the test with NCI-H522 lung, 26.3 µM; in the test on KM12 colon it was 12.7 µM; with RXF 393 renal, 12.7 µM; with COLO 205 colon, 14.8 µM; with DU-145 prostate, 14.8 µM. The values for the GI50 in the test with ACHN renal and in the test with OVCAR-5 ovarian were 16 µM and 17.4 µM, respectively. Further, the TGI with 786-0 renal was 27.5 µM; in the test with NCI-H522 lung it was > 100 µM; in the test on KM12 colon, 26.4 µM; with RXF 393 renal it was 31.8 µM; in the test with COLO 205 colon, 40.3 µM; in the test with DU-145 prostate, 28.2 µM. Further, the values for the TGI with ACHN renal and in the test on OVCAR-5 ovarian were 29.5 µM and 32.2 µM, respectively.

In general, GI50 refers to the concentration that inhibits growth by half. A word on the TGI: it is the concentration giving total growth inhibition.

Values taken from PubChem BioAssay (NCI).
